From US12679824B2 (Hoffmann-La Roche Inc., priority 2020, dated 2026) come the findings set out here.

Broadly, the IC90 is the concentration needed for an effect of 90%.

The test system of the first test is Acinetobacter baumannii ATCC17961. The experiment in a line: 90% Growth Inhibitory Concentration (IC90) determination, antimicrobial susceptibility testing. The class given is cell-based. The settings on record: Acinetobacter baumannii ATCC17961; Iso-Sensitest broth; growth by optical density at 600 nm over 16h; concentration inhibiting 90% of the growth; read-out: ATCC 17961 IC90. An outline of the steps:
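Broth microdilution in Iso-Sensitest medium, compounds twofold diluted (e.g. 50–0.097 μM final), inoculum ~5×10^(5) CFU/ml, 35±2° C. OD600 was read every 20 min over 16 h. IC90 was derived from growth inhibition during logarithmic growth.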
As for `Cn1c(-c2cn(-c3ccc(N)cn3)nc2C(F)(F)F)cnc1C(=O)Nc1ccc(C(=O)N[C@H]2C[C@@H](NC(=O)[C@@H]3C[C@@H](O)CN3)C2)c(Cl)c1` (stereo in doubt) [Example Z42, 5-[1-(5-amino-2-pyridyl)-3-(trifluoromethyl)pyrazol-4-yl]-N-[3-chloro-4-[cis-[3-[[(2S,4R)-4-hydroxyprolyl]amino]cyclobutyl]carbamoyl]phenyl]-1-methyl-imidazole-2-carboxamide], the IC90 is 630 nM.

Still in this test, the particulars now being: Acinetobacter baumannii, ATCC17961, 16 h, Acinetobacter baumannii ATCC17961; Iso-Sensitest broth; growth by optical density at 600 nm over 16h; concentration inhibiting 90% of the growth; read-out: ATCC 17961 IC90.
In the case of `Cn1c(-c2cn(-c3ccc(N)cn3)nc2C(F)(F)F)cnc1C(=O)Nc1ccc(C(=O)N2CCN(C(=O)C3(O)CCNCC3)CC2)c(Cl)c1` [Example C4, 5-[1-(5-amino-2-pyridyl)-3-(trifluoromethyl)pyrazol-4-yl]-N-[3-chloro-4-[4-(4-hydroxypiperidine-4-carbonyl)piperazine-1-carbonyl]phenyl]-1-methyl-imidazole-2-carboxamide], the IC90 was 310 nM. For `Cn1c(-c2cn(-c3ccc(N)cn3)nc2C(F)(F)F)cnc1C(=O)Nc1ccc(C(=O)N2CCNC(C)(C)C2)c(Cl)c1` [Example Z57, 5-[1-(5-amino-2-pyridyl)-3-(trifluoromethyl)pyrazol-4-yl]-N-[3-chloro-4-(3,3-dimethylpiperazine-1-carbonyl)phenyl]-1-methyl-imidazole-2-carboxamide], the 90% effect concentration (IC90) came to 1290 nM. Same read-out and setting: to `COCCNc1ccnc(-n2cc(-c3cnc(C(=O)Nc4ccc(C(=O)N5CCN(C(=O)C6CCNCC6)CC5)c(Cl)c4)n3C)c(C(F)(F)F)n2)n1` [Example A19, N-[3-chloro-4-[4-(piperidine-4-carbonyl)piperazine-1-carbonyl]phenyl]-5-[1-[4-(2-methoxyethylamino)pyrimidin-2-yl]-3-(trifluoromethyl)pyrazol-4-yl]-1-methyl-imidazole-2-carboxamide] belongs 1200 nM. On the same count and under the same terms, as for `Cc1cc(-n2cc(-c3cnc(C(=O)Nc4ccc(C(=O)N5CCN(C(=O)C6CCNCC6)CC5)c(Cl)c4)n3C)c(C(F)(F)F)n2)ncc1N` [Example Z82, 5-[1-(5-amino-4-methyl-2-pyridyl)-3-(trifluoromethyl)pyrazol-4-yl]-N-[3-chloro-4-[4-(piperidine-4-carbonyl)piperazine-1-carbonyl]phenyl]-1-methyl-imidazole-2-carboxamide], the figure is 340 nM; as for `Cn1c(-c2cn(-c3ccc(NCCN)cn3)nc2C(F)(F)F)cnc1C(=O)Nc1ccc(C(=O)N2CCN(C(=O)C3CCNCC3)CC2)c(Cl)c1` [Example Z89, 5-[1-[5-(2-aminoethylamino)-2-pyridyl]-3-(trifluoromethyl)pyrazol-4-yl]-N-[3-chloro-4-(4-isonipecotoylpiperazine-1-carbonyl)phenyl]-1-methyl-imidazole-2-carboxamide], 100 nM.

In the case of `C[C@@H]1CNC[C@H](C)N1C(=O)c1ccc(NC(=O)c2ncc(-c3cn(-c4ccc(N)cn4)nc3C(F)(F)F)n2C)cc1Cl` [Example Z54, 5-[1-(5-amino-2-pyridyl)-3-(trifluoromethyl)pyrazol-4-yl]-N-[3-chloro-4-[(2S,6R)-2,6-dimethylpiperazine-1-carbonyl]phenyl]-1-methyl-imidazole-2-carboxamide], the IC90 turned out to be 350 nM. Turning to `Cn1c(-c2cn(-c3ccnc(Cl)c3)nc2C(F)(F)F)cnc1C(=O)Nc1ccc(C(=O)N2CCN(C(=O)C3CCNCC3)CC2)c(Cl)c1` [Example Z50, N-[3-chloro-4-(4-isonipecotoylpiperazine-1-carbonyl)phenyl]-5-[1-(2-chloro-4-pyridyl)-3-(trifluoromethyl)pyrazol-4-yl]-1-methyl-imidazole-2-carboxamide], the 90% effect concentration (IC90) was 800 nM.

Still in this test, the particulars now being: Acinetobacter baumannii, ATCC17961, 16 h, read-out: ATCC 17961 IC90.
On to `Cn1c(-c2cn(-c3ccc(N)cn3)nc2C(F)(F)F)cnc1C(=O)Nc1ccc(C(=O)N2CCC(CN3CCNCC3=O)CC2)c(Cl)c1` [Example I1, 5-[1-(5-Amino-2-pyridyl)-3-(trifluoromethyl)pyrazol-4-yl]-N-[3-chloro-4-[4-[(2-oxopiperazin-1-yl)methyl]piperidine-1-carbonyl]phenyl]-1-methyl-imidazole-2-carboxamide], for which the 90% effect concentration (IC90) came out at 1500 nM.
